The target in one assay is T1, CDK12–cyclin K and DDB1 (Homo sapiens, UniProt Q16531+Q9NYV4, K965R).
T1 construct: His6–CDK12 (a.a. 713–1,052); full-length or beta-propeller B domain deletion (ΔBPB: a.a. 396–705 deleted) constructs of His6–DDB1ΔBPB, StrepII–Avi–DDB1, or His6–Spy–DDB1; made in house; host or cells: Trichoplusia ni High Five insect cells (baculovirus)
Put plainly: TR-FRET ternary complex formation assay (compound titration). It counts as binding. The settings on record: for TR-FRET signal at compound concentration: replicate titrations. Summed up: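 A time delay of 70 μs preceded acquisition, limiting background fluorescence; the ratio of emission at 520 versus 490 nm gave the TR-FRET value.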

The next assay relates to HEK293T cells. Put plainly: Drug sensitivity assay (CellTiter-Glo viability) with or without MLN4924 pretreatment. It counts as cell-based, human. As to conditions: Supplementary Table 2; for EC50: Homo sapiens, HEK-293T, HEK293T viability, 72 h, compound alone, read-out: Cellular assays EC50; for Toxicity rescue: MLN4924-mediated cytotoxicity rescue, 10 µM used where n.d. Summed up: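 Cas9-expressing HEK293T cells receive either vehicle or 100 nM MLN4924, then compounds 2 h afterwards. After three days, luminescence-based viability is measured and calculated relative to DMSO.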
For orientation: Cellular ATP, detected with luciferase, serves as a proxy for viable cell number.

Assay [1] deals with cyclin K–eGFP degradation reporter. Put plainly: Cyclin K reporter stability analysis (dual-color cyclin K–eGFP reporter). In kind it is cell-based, human. In short, it runs like this: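 Readout: flow-cytometric eGFP/mCherry ratio (geometric means, round mCherry+ gate) relative to the average of three DMSO wells. Reporter line was HEK293T–Cas9, treated 5 h with compound.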
[2] abbreviates: in vitro complex formation, 50 nM CDK12–cyclin K, 100 nM DDB1, text and figures, read-out: TR-FRET EC50.
[3] abbreviates: sheet MOESM7, read-out: log TR-FRET EC50 (converted).
Where [4] appears, read: Supplementary Table 2, HEK293T cycK-eGFP reporter, 5 h, read-out: Cellular assays DC50.
[5] abbreviates: compound concentration 79.2001 nM.
Setting [6] is: compound concentration 158.4 nM.
Setting [7] is: compound concentration 309.6 nM.
Where [8] appears, read: compound concentration 626.401 nM.
The mark [9] stands for this setting: compound concentration 1252.8 nM.
[10] abbreviates: compound concentration 9936.01 nM.
The mark [11] stands for this setting: compound concentration 20016 nM.

Several values for one entry are separate records, joined by “and”; a condition that tells them apart may be missing. Equal values may be shown once. Read-outs that look alike come from different tables or passages of the source.

T1 sequence (Q9NYV4 713-1052 K965R): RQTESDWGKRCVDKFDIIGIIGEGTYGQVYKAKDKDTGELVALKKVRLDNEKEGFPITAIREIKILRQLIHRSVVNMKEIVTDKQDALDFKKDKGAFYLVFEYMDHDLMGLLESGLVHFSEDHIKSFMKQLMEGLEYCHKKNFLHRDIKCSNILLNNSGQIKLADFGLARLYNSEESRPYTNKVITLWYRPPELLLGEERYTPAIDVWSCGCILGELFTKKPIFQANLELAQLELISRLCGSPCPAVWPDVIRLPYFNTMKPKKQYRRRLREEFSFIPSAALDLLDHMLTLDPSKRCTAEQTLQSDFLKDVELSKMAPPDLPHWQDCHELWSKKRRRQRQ
T1 sequence (O75909 1-267 partner): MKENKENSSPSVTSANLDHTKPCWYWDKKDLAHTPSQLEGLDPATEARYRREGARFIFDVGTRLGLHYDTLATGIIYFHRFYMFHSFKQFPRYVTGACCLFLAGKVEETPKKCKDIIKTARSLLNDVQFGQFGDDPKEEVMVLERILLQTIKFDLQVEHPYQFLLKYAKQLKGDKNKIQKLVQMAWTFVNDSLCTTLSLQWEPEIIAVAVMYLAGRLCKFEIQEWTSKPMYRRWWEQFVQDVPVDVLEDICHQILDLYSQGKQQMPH
T1 sequence (Q16531 whole entry): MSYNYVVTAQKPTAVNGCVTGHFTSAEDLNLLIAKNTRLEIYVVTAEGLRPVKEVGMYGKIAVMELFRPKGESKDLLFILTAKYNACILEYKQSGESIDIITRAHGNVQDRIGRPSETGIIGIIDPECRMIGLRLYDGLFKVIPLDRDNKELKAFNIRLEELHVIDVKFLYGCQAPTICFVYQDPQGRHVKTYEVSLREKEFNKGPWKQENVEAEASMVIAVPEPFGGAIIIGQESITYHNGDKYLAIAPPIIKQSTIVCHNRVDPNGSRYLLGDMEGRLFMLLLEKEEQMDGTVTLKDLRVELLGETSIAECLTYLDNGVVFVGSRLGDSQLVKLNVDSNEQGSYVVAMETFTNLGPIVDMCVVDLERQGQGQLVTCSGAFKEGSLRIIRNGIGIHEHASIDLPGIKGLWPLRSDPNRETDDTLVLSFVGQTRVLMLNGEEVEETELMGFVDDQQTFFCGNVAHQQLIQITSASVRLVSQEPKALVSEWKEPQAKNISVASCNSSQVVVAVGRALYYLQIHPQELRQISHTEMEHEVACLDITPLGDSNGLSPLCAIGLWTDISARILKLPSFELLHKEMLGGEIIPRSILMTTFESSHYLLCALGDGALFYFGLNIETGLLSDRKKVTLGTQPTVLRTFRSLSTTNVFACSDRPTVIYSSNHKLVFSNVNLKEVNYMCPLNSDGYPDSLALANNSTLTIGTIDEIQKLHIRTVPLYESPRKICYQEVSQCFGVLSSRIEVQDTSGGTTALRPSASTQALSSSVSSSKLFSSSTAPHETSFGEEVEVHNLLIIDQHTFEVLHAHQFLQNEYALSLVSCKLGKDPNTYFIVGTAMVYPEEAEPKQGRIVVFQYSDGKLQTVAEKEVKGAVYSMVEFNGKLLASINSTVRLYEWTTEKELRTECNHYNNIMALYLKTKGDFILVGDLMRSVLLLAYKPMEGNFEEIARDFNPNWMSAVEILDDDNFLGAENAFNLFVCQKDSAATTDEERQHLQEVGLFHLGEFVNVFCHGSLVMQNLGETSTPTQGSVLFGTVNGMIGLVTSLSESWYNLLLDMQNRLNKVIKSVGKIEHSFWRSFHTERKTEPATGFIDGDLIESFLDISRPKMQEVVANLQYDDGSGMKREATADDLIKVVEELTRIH

Take `CC(C)n1cnc2c(NCc3ccc(-c4ccccn4)cc3)nc(NCCCCCC(=O)N[C@H]3O[C@H](CO)[C@@H](O)[C@H](O)[C@H]3O)nc21` [DS51]: the EC50 is 274 nM on CDK12–cyclin K and DDB1 (Supplementary Table 2, read-out: TR-FRET EC50 TR-FRET); 275 ± 16 nM on CDK12–cyclin K and DDB1 (setting [2]); 274 nM on CDK12–cyclin K and DDB1 (setting [3]); greater than 10 µM with HEK293T cells. Also, the “TR-FRET signal at compound concentration 4.68 nM” value on CDK12–cyclin K and DDB1 (compound concentration 4.68 nM, raw titration data) is 0.2297 and 0.2444. Also, the “TR-FRET signal at compound concentration 21.6 nM” value on CDK12–cyclin K and DDB1 (compound concentration 21.6 nM, raw titration data) was 0.3216 and 0.3313. Besides, the “TR-FRET signal at compound concentration 36 nM” value at CDK12–cyclin K and DDB1 (compound concentration 36 nM, raw titration data) was 0.5067 and 0.5037. Moreover, on CDK12–cyclin K and DDB1 (compound concentration 79.2001 nM, raw titration data), the “TR-FRET signal at compound concentration 79.2001 nM” value was 0.816 and 0.7927. On CDK12–cyclin K and DDB1 (compound concentration 158.4 nM, raw titration data), the “TR-FRET signal at compound concentration 158.4 nM” value is 1.255 and 1.244. Besides, the “TR-FRET signal at compound concentration 309.6 nM” value at CDK12–cyclin K and DDB1 (compound concentration 309.6 nM, raw titration data) is 1.886 and 1.872. Also, the “TR-FRET signal at compound concentration 626.401 nM” value on CDK12–cyclin K and DDB1 (compound concentration 626.401 nM, raw titration data) was 2.526 and 2.552. In addition, on CDK12–cyclin K and DDB1 (compound concentration 1252.8 nM, raw titration data), the “TR-FRET signal at compound concentration 1252.8 nM” value was 3.049 and 3.029. Besides, the “TR-FRET signal at compound concentration 2448 nM” value on CDK12–cyclin K and DDB1 (compound concentration 2448 nM, raw titration data) was 3.216 and 3.3184. Also, on CDK12–cyclin K and DDB1 (compound concentration 9936.01 nM, raw titration data), the “TR-FRET signal at compound concentration 9936.01 nM” value was 3.256 and 3.415. Besides, the “TR-FRET signal at compound concentration 20016 nM” value on CDK12–cyclin K and DDB1 (compound concentration 20016 nM, raw titration data) is 3.017 and 3.197. For the same compound, the Toxicity rescue in the assay on HEK293T cells was 0%. Also, the DC50 in assay [1] (setting [4]) was greater than 10 µM.

`CC[C@H](CO)Nc1nc(NCCCCCc2cccc3ccccc23)c2ncn(C(C)C)c2n1` [DS15]: the “TR-FRET signal, individual replicate” value on CDK12–cyclin K and DDB1 (compound concentration 4.68 nM) was 0.1682 and 0.1874; at CDK12–cyclin K and DDB1 (compound concentration 21.6 nM) it was 0.2977 and 0.3197; at CDK12–cyclin K and DDB1 (compound concentration 36 nM) it was 0.5215 and 0.541; on CDK12–cyclin K and DDB1 (setting [5]), 0.8673 and 0.9745; on CDK12–cyclin K and DDB1 (setting [6]), 1.23 and 1.324; at CDK12–cyclin K and DDB1 (setting [7]) it was 1.677 and 1.781. For the same compound, the “TR-FRET signal, individual replicate” value at CDK12–cyclin K and DDB1 (setting [8]) was 2.096 and 2.217; on CDK12–cyclin K and DDB1 (setting [9]), 2.231 and 2.525; on CDK12–cyclin K and DDB1 (compound concentration 2448 nM) it was 2.525 and 2.68; on CDK12–cyclin K and DDB1 (setting [10]), 2.633 and 2.833; on CDK12–cyclin K and DDB1 (setting [11]) it was 2.343 and 2.482. The “TR-FRET signal at compound concentration” value at CDK12–cyclin K and DDB1 (compound concentration 4.68 nM) was 0.1682 and 0.1874; on CDK12–cyclin K and DDB1 (compound concentration 21.6 nM), 0.2977 and 0.3197; on CDK12–cyclin K and DDB1 (compound concentration 36 nM), 0.5215 and 0.541; on CDK12–cyclin K and DDB1 (setting [5]), 0.8673 and 0.9745; on CDK12–cyclin K and DDB1 (setting [6]) it was 1.23 and 1.324; at CDK12–cyclin K and DDB1 (setting [7]), 1.677 and 1.781. Besides, the “TR-FRET signal at compound concentration” value was 2.096 and 2.217 on CDK12–cyclin K and DDB1 (setting [8]); 2.231 and 2.525 at CDK12–cyclin K and DDB1 (setting [9]); 2.525 and 2.68 at CDK12–cyclin K and DDB1 (compound concentration 2448 nM); 2.633 and 2.833 on CDK12–cyclin K and DDB1 (setting [10]); 2.343 and 2.482 on CDK12–cyclin K and DDB1 (setting [11]). In addition, the EC50 at CDK12–cyclin K and DDB1 (setting [2]) is 182 nM; at CDK12–cyclin K and DDB1 (setting [3]), 182 nM; in the assay on HEK293T cells, greater than 10 µM. The Toxicity rescue in the assay on HEK293T cells was 0%. Besides, the 50% degradation concentration (DC50) in assay [1] (setting [4]) is greater than 10 µM.

`CC[C@H](CO)Nc1nc(NCc2ccc(-c3ccccn3)c(=O)[nH]2)c2ncn(C(C)C)c2n1` [WX3]: the “TR-FRET signal at compound concentration” value on CDK12–cyclin K and DDB1 (compound concentration 0.468 nM) was 0.2972 and 0.3391; at CDK12–cyclin K and DDB1 (compound concentration 2.16 nM), 0.4654 and 0.4243; at CDK12–cyclin K and DDB1 (compound concentration 3.6 nM) it was 0.6432 and 0.6311; at CDK12–cyclin K and DDB1 (compound concentration 7.92001 nM) it was 1.023 and 1.017; at CDK12–cyclin K and DDB1 (compound concentration 15.84 nM) it was 1.68 and 1.67; on CDK12–cyclin K and DDB1 (compound concentration 30.96 nM), 2.537 and 2.526. The “TR-FRET signal at compound concentration” value is 3.223 and 3.119 on CDK12–cyclin K and DDB1 (compound concentration 62.6401 nM); 3.664 and 3.458 on CDK12–cyclin K and DDB1 (compound concentration 125.28 nM); 3.773 and 3.684 on CDK12–cyclin K and DDB1 (compound concentration 244.8 nM); 3.764 and 3.722 on CDK12–cyclin K and DDB1 (compound concentration 993.601 nM); 3.801 and 3.784 at CDK12–cyclin K and DDB1 (compound concentration 2001.6 nM). Further, the EC50 at CDK12–cyclin K and DDB1 (setting [2]) is 21 ± 1 nM; at CDK12–cyclin K and DDB1 (setting [3]), 21.4 nM; at CDK12–cyclin K and DDB1 (source data sheet correlations, read-out: TR-FRET EC50), 21.4 nM; in the assay with HEK293T cells it was 0.179 µM. The Toxicity rescue in the assay on HEK293T cells was 954%. Also, the DC50 in assay [1] (source data sheet correlations, read-out: DC50) was 0.023 µM.

Usually EC50 stands for the concentration that produces a half-maximal response. As usually defined, the DC50 is the concentration at which degradation of the target reaches its halfway point.

The record behind these values is article PMC10746543, “Design principles for cyclin K molecular glue degraders” (Nature Chemical Biology, 2023).
